Test results taken from the Kinase Knowledgebase extract (Sharma et al. 2016).

biological target: MAPK14 (human) (UniProt Q16539); test: Inhibition of MAPK14 Kinase Activity
Sequence (Q16539 whole entry, looked up): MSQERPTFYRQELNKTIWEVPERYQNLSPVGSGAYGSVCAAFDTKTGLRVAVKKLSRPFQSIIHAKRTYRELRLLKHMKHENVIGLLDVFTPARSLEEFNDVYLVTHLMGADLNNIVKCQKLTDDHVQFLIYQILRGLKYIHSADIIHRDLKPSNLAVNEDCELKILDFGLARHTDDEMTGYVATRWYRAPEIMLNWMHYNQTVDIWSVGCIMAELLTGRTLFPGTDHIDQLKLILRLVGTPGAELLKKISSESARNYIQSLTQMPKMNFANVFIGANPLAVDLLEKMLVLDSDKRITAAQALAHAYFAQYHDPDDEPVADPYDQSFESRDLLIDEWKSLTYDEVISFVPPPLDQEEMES

Structure (SMILES) | IC50 [µM]
O=c1[nH]c2c(-c3ccccc3Cl)ncnc2n1-c1ccc(F)cc1F | 2.7
O=c1[nH]c2c(-c3ccccc3)ncnc2n1-c1c(F)cccc1F | 17.5
Cc1cccc(C)c1-n1c(=O)[nH]c2c(-c3ccccc3Cl)ncnc21 | 7.8
Cc1ccccc1-c1ncnc2c1[nH]c(=O)n2-c1c(F)cccc1F | 0.5
COc1ccc(-n2c(=O)[nH]c3c(-c4ccccc4C)ncnc32)c(OC)c1 | 5.2
Cc1ccccc1-c1ncnc2c1[nH]c(=O)n2-c1ccc(F)cc1F | 1.6
O=c1[nH]c2c(-c3ccccc3Cl)ncnc2n1-c1c(F)cccc1F | 0.9
O=c1[nH]c2c(-c3ccccc3F)ncnc2n1-c1c(F)cccc1F | 7.8
Cc1ccccc1-c1ncnc2c1[nH]c(=O)n2-c1c(C)cccc1C | 18.1
Cc1ccccc1-c1ncnc2c1[nH]c(=S)n2-c1c(C)cccc1C | 100
